Experimental data as given in ChEMBL document CHEMBL6078700, “Synthesis of novel deuterated EGFR/ALK dual-target inhibitors and their activity against non-small cell lung cancer” (Eur J Med Chem, 2025).

What was measured:
BaF3 = test: Antiproliferative activity against mouse BaF3 cells expressing EML4-ALK fusion incubated for 48 hrs by CCK8 assay
NCI-H2228 = test: Antiproliferative activity against human NCI-H2228 cells expressing EML4-ALK fusion incubated for 48 hrs by CCK8 assay
PC-9 = test: Antiproliferative activity against human PC-9 cells expressing EGFR mutation incubated for 48 hrs by CCK8 assay
[1] = Antiproliferative activity against human NCI-H1975 cells expressing EGFR mutation incubated for 48 hrs by CCK8 assay
NCI-H522 = test: Antiproliferative activity against human NCI-H522 cells expressing wild-type EGFR/ALK incubated for 48 hrs by CCK8 assay
EML4-ALK = EML4-ALK (Homo sapiens, UniProt Q9UM73); test: Inhibition of EML4-ALK (unknown origin) phosphorylation by ELISA; assay type: protein assay
Chain of EML4-ALK (Q9UM73 whole entry): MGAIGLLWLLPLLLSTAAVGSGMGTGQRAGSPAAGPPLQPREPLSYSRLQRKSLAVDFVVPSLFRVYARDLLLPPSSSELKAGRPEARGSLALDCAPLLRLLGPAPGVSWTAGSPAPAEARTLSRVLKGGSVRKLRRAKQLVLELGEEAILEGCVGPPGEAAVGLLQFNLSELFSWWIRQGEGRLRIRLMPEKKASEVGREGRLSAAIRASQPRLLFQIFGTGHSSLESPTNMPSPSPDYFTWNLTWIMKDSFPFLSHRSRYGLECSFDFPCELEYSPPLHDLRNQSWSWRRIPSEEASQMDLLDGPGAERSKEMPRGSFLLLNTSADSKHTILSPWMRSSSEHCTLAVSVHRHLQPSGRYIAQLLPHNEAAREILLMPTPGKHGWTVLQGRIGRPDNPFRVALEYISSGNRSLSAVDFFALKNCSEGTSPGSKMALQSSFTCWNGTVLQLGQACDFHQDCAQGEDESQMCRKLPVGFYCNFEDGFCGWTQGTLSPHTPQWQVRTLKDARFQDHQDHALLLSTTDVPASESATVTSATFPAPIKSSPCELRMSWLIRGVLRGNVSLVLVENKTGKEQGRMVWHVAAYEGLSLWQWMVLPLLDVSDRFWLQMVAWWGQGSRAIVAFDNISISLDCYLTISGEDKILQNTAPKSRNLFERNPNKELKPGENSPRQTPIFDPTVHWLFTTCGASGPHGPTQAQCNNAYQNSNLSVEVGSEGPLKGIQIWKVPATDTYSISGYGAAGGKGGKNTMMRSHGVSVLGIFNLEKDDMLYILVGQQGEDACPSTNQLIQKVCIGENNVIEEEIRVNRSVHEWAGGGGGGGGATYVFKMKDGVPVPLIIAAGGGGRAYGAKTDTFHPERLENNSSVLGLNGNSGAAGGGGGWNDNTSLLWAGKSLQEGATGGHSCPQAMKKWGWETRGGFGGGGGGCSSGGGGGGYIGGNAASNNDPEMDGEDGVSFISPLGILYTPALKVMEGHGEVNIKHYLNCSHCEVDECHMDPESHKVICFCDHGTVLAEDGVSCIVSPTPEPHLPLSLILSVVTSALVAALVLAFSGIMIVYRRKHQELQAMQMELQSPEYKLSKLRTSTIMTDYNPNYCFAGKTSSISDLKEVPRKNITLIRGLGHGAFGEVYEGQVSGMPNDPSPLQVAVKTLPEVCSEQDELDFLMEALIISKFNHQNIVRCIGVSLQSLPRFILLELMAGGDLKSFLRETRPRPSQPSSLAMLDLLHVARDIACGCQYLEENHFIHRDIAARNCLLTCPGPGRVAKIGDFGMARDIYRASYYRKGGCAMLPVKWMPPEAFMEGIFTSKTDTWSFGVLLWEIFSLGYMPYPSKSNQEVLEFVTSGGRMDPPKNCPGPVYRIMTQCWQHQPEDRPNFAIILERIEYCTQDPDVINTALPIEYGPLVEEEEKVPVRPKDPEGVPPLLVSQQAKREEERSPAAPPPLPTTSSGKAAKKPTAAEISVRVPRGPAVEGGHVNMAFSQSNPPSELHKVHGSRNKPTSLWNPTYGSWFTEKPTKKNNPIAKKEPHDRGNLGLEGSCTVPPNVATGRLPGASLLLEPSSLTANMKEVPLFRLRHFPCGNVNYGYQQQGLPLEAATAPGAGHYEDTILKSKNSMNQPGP
Chain of EML4-ALK (Q9HC35 whole entry, further chain): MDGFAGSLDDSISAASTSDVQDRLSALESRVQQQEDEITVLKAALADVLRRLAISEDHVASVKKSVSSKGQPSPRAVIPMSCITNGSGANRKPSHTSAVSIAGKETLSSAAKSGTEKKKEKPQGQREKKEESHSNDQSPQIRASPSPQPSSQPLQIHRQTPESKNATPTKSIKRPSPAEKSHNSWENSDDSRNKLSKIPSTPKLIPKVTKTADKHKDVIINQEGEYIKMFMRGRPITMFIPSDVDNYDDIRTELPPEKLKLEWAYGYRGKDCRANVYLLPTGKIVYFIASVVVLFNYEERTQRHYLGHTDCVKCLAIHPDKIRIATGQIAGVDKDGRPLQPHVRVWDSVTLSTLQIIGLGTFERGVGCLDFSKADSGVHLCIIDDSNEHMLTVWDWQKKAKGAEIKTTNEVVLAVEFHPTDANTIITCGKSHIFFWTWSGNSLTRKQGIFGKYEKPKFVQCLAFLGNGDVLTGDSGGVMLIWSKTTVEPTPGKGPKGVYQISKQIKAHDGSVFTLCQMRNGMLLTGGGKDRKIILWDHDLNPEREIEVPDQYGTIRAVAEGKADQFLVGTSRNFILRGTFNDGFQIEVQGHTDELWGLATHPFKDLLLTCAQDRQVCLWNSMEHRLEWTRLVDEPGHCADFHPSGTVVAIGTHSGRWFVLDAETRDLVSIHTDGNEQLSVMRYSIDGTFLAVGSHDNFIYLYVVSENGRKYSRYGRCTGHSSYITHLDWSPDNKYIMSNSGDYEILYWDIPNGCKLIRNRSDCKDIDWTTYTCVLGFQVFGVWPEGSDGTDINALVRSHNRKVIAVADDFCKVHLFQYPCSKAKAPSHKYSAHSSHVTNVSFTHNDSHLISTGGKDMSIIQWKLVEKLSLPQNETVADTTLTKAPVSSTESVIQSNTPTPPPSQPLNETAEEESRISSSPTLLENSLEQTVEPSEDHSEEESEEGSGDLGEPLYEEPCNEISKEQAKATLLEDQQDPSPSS

[2] = Metabolic stability in human liver microsomes assessed as half life at 1 uM measured for 60 mins by LC-MS/MS analysis; assay type: ADME, Microsome
[3] = Metabolic stability in human liver microsomes assessed as clearance at 1 uM measured for 60 mins by LC-MS/MS analysis; assay type: ADME, Microsome; conditions: read-out: CLH
NCI-H1975 [4] = test: Antitumor activity against human NCI-H1975 cells xenografted in BALB/c-nu mouse at 30 mg/kg, po administered daily orally for 7 days relative to control; assay type: functional; conditions: time 7 day; for inhibition in vivo at 30 mg/kg: Mus musculus, NCI-H1975, 168 h, read-out: TGI
NCI-H1975 [5] = test: Antitumor activity against human NCI-H1975 cells xenografted in BALB/c-nu mouse at 5 mg/kg, po administered daily orally for 21 days relative to control; assay type: functional; conditions: time 21 day, 5 mg/kg, 504 h
NCI-H1975 [6] = test: Antitumor activity against human NCI-H1975 cells xenografted in BALB/c-nu mouse at 15 mg/kg, po administered daily orally for 21 days relative to control; assay type: functional; conditions: time 21 day, 15 mg/kg, 504 h
NCI-H1975 [7] = test: Antitumor activity against human NCI-H1975 cells xenografted in BALB/c-nu mouse at 30 mg/kg, po administered daily orally for 21 days relative to control; assay type: functional; conditions: time 21 day
NCI-H1975 [8] = test: Induction of cell cycle arrest in human NCI-H1975 cells assessed as accumulation at G0/G1 phase at 5 nM incubated for 24 hrs by PI/RNase staining based flow cytometry (reference value: 50.19 %); assay type: functional
NCI-H1975 [9] = test: Induction of cell cycle arrest in human NCI-H1975 cells assessed as accumulation at S phase at 5 nM incubated for 24 hrs by PI/RNase staining based flow cytometry (reference value: 17.1 %); assay type: functional
NCI-H1975 [10] = test: Induction of cell cycle arrest in human NCI-H1975 cells assessed as accumulation at G2/M phase at 5 nM incubated for 24 hrs by PI/RNase staining based flow cytometry (reference value: 32.71 %); assay type: functional
NCI-H1975 [11] = test: Induction of apoptosis in human NCI-H1975 cells assessed as viable cells at 5 nM incubated for 48 hrs by allo-Phycocyanin-Annexin V staining based flow cytometry (reference value: 93.6 %); assay type: functional
NCI-H1975 [12] = test: Induction of apoptosis in human NCI-H1975 cells assessed as early apoptotic cells at 5 nM incubated for 48 hrs by allo-Phycocyanin-Annexin V staining based flow cytometry (reference value: 2.27 %); assay type: functional
NCI-H1975 [13] = test: Induction of apoptosis in human NCI-H1975 cells assessed as late apoptotic cells at 5 nM incubated for 48 hrs by allo-Phycocyanin-Annexin V staining based flow cytometry (reference value: 4.08 %); assay type: functional
NCI-H1975 [14] = test: Induction of apoptosis in human NCI-H1975 cells assessed as necrotic cells at 5 nM incubated for 48 hrs by allo-Phycocyanin-Annexin V staining based flow cytometry (reference value: 0.031 %); assay type: functional

| SMILES | IC50 (BaF3; Mus musculus, BaF3, 48 h) [nM] | IC50 (NCI-H2228; Homo sapiens, NCI-H2228, 48 h) [nM] | IC50 (PC-9; Homo sapiens, PC-9, 48 h) [nM] | IC50 ([1]; Homo sapiens, NCI-H1975, 48 h) [nM] | IC50 (NCI-H522; Homo sapiens, NCI-H522, 48 h) [nM] | IC50 (EML4-ALK) [nM] | half-life at 1 µM [2] [min] | microsomal CLint at 1 µM [3] [µL/min/mg] | also measured |
| --- | --- | --- | --- | --- | --- | --- | --- | --- | --- |
| C=CC(=O)Nc1cc(Nc2ncc(Cl)c(Nc3ccc(Cl)cc3[S+]([O-])C(C)C)n2)c(OC)cc1N(C)CCN(C)C (stereo not given) | 2.37 | 18.9 | 2.53 | 3.77 | 1380 | 6.81 | 26.3 | 132 |  |
| [2H]C([2H])([2H])C([2H])([2H])[S+]([O-])c1cc(Cl)ccc1Nc1nc(Nc2cc(NC(=O)C=C)c(N(C)CCN(C)C)cc2OC)ncc1Cl (stereo not given) | 3.61 | 32.4 | 3.91 | 3.88 | 2710 | 8.81 | 50.5 | 68.7 |  |
| [2H]C([2H])([2H])C([2H])([S+]([O-])c1ccccc1Nc1nc(Nc2cc(NC(=O)C=C)c(N(C)CCN(C)C)cc2OC)ncc1Cl)C([2H])([2H])[2H] (stereo not given) | 14.4 | 12.5 | 45.9 | 9.26 | 2730 | 10 | 31.9 | 109 |  |
| C=CC(=O)Nc1cc(Nc2ncc(Cl)c(Nc3cccc(F)c3[S+]([O-])C(C)C)n2)c(OC)cc1N(C)CCN(C)C (stereo not given) | 2.97 | 23.8 | 2.81 | 7.59 | 2490 | 5.47 | 32.3 | 107 |  |
| [2H]C([2H])([2H])C([2H])([2H])[S+]([O-])c1c(F)cccc1Nc1nc(Nc2cc(NC(=O)C=C)c(N(C)CCN(C)C)cc2OC)ncc1Cl (stereo not given) | 7.74 | 58.2 | 5.13 | 9.56 | 5330 | 5.59 | 125 | 27.7 | inhibition in vivo at 30 mg/kg (NCI-H1975 [4]): 85.9% |
| C=CC(=O)Nc1cc(Nc2ncc(Cl)c(Nc3ccccc3[S+]([O-])CC)n2)c(OC)cc1N(C)CCN(C)C (stereo not given) | 3.6 | 43.1 | 6.1 | 4.3 |  | 4.69 |  |  |  |
| C=CC(=O)Nc1cc(Nc2ncc(Cl)c(Nc3cccc(F)c3[S+]([O-])CC)n2)c(OC)cc1N(C)CCN(C)C (stereo not given) | 4.03 | 66.8 | 3.14 | 2.79 | 7860 | 4.47 | 223 | 15.5 | inhibition in vivo at 30 mg/kg (NCI-H1975 [4]): 75.3% |
| C=CC(=O)Nc1cc(Nc2ncc(Cl)c(Nc3cccc(Cl)c3[S+]([O-])C(C)C)n2)c(OC)cc1N(C)CCN(C)C (stereo not given) | 9.31 | 22.5 | 4.05 | 7.55 | 2380 | 7.39 | 37.7 | 92 |  |
| C=CC(=O)Nc1cc(Nc2ncc(Cl)c(Nc3cccc(Cl)c3[S+]([O-])CC)n2)c(OC)cc1N(C)CCN(C)C (stereo not given) | 36 | 54.2 | < 0.001 | 3.76 | 2420 | 7.32 | 52 | 66.7 |  |
| [2H]C([2H])([2H])C([2H])([S+]([O-])c1c(F)cccc1Nc1nc(Nc2cc(NC(=O)C=C)c(N(C)CCN(C)C)cc2OC)ncc1Cl)C([2H])([2H])[2H] (stereo not given) | 16.1 | 23.7 | 5.56 | 17.2 | 2160 | 2.09 | 49.1 | 70.5 |  |
| [2H]C([2H])([2H])C([2H])([2H])[S+]([O-])c1ccccc1Nc1nc(Nc2cc(NC(=O)C=C)c(N(C)CCN(C)C)cc2OC)ncc1Cl (racemic) |  | 29.2 |  |  |  | 3.72 | 162 | 21.4 | IC50 (BaF3; baf3): 3.53 nM; IC50 (PC-9; pc-9): 6.32 nM; IC50 ([1]; nci-h1975): 2.33 nM; IC50 (NCI-H522; nci-h522): 4630 nM; inhibition in vivo at 30 mg/kg (NCI-H1975 [4]): 96.8% |
| [2H]C([2H])([2H])C([2H])([2H])[S+]([O-])c1ccccc1Nc1nc(Nc2cc(NC(=O)C=C)c(N(C)CCN(C)C)cc2OC)ncc1Cl (single isomer, unassigned; (+)) |  |  |  |  |  |  |  |  | IC50 (BaF3; baf3): 18.3 nM; IC50 (NCI-H2228; nci-h2228): 37.6 nM; IC50 (PC-9; pc-9): 6.88 nM; IC50 ([1]; nci-h1975): 5.36 nM; IC50 (NCI-H522; nci-h522): 6330 nM; TGI (NCI-H1975 [5]): 72.01%; TGI (NCI-H1975 [6]): 86.97%; TGI (NCI-H1975 [7]; 30 mg/kg, 504 h): 91.87% |
| COc1cc(N2CCC(N3CCN(C)CC3)CC2)ccc1Nc1ncc(Cl)c(Nc2ccccc2P(C)(C)=O)n1 [BRIGATINIB] | 7.46 | 28.9 | 983 | 484 | 4610 |  |  |  |  |
| Cc1cc(Nc2ncc(Cl)c(Nc3ccccc3S(=O)(=O)C(C)C)n2)c(OC(C)C)cc1C1CCNCC1 [CERITINIB] | 10.1 | 18.3 | 2150 | 2110 | 2760 |  |  |  |  |
| C=CC(=O)Nc1cc(Nc2nccc(-c3cn(C)c4ccccc34)n2)c(OC)cc1N(C)CCN(C)C [OSIMERTINIB] | 327 | 1840 | 6.43 | 4.16 | 2320 |  |  |  | TGI (NCI-H1975 [4]): 94.73%; Activity (NCI-H1975 [8]): 65.8%; Activity (NCI-H1975 [9]): 6.87%; Activity (NCI-H1975 [10]): 27.24%; Activity (NCI-H1975 [11]): 71.1%; Activity (NCI-H1975 [12]): 12.2%; Activity (NCI-H1975 [13]): 16.7%; Activity (NCI-H1975 [14]): 0.032%; TGI (NCI-H1975 [7]): 95.05% |
